Consider 19 compounds from PMC6514607, “Synthesis of Chromen-4-One-Oxadiazole Substituted Analogs as Potent β-Glucuronidase Inhibitors” (Molecules, 2019).

The structures appear in SMILES notation.

Broadly, the melting point is the temperature of the solid-liquid transition. On to `O=c1cc(-c2ccc(-c3nnc(-c4ccc(Cl)cc4)o3)cc2)oc2ccccc12` [Compound 1, 2-(4-(5-(4-Chlorophenyl)-1,3,4-oxadiazol-2-yl)phenyl)-4H-chromen-4-one], for which the melting point was in the range of 288 to 289 °C.

The compound `O=c1cc(-c2ccc(-c3nnc(-c4cccc(Cl)c4)o3)cc2)oc2ccccc12` [Compound 2, 2-(4-(5-(3-Chlorophenyl)-1,3,4-oxadiazol-2-yl)phenyl)-4H-chromen-4-one] displayed a melting point of 282 to 283 °C. The result for `O=c1cc(-c2ccc(-c3nnc(Cc4ccccc4Cl)o3)cc2)oc2ccccc12` [Compound 3, 2-(4-(5-(2-Chlorobenzyl)-1,3,4-oxadiazol-2-yl)phenyl)-4H-chromen-4-one] reads 276 to 277 °C; that for `O=c1cc(-c2ccc(-c3nnc(-c4ccc(F)cc4)o3)cc2)oc2ccccc12` [Compound 4, 2-(4-(5-(4-Fluorophenyl)-1,3,4-oxadiazol-2-yl)phenyl)-4H-chromen-4-one], 299 to 300 °C. In turn, `O=c1cc(-c2ccc(-c3nnc(-c4cccc(F)c4)o3)cc2)oc2ccccc12` [Compound 5, 2-(4-(5-(3-Fluorophenyl)-1,3,4-oxadiazol-2-yl)phenyl)-4H-chromen-4-one] gave a melting point of 294 to 295 °C. In the case of `O=c1cc(-c2ccc(-c3nnc(-c4ccccc4F)o3)cc2)oc2ccccc12` [Compound 6, 2-(4-(5-(2-Fluorophenyl)-1,3,4-oxadiazol-2-yl)phenyl)-4H-chromen-4-one], the melting point is 291 to 292 °C. The result for `Cc1ccc(-c2nnc(-c3ccc(-c4cc(=O)c5ccccc5o4)cc3)o2)cc1` [Compound 7, 2-(4-(5-(p-Tolyl)-1,3,4-oxadiazol-2-yl)phenyl)-4H-chromen-4-one] reads 270 to 271 °C. The result for `Cc1cccc(-c2nnc(-c3ccc(-c4cc(=O)c5ccccc5o4)cc3)o2)c1` [Compound 8, 2-(4-(5-(m-Tolyl)-1,3,4-oxadiazol-2-yl)phenyl)-4H-chromen-4-one] reads 264 to 265 °C; that for `Cc1ccccc1-c1nnc(-c2ccc(-c3cc(=O)c4ccccc4o3)cc2)o1` [Compound 9, 2-(4-(5-(o-Tolyl)-1,3,4-oxadiazol-2-yl)phenyl)-4H-chromen-4-one], 260 to 261 °C. In turn, `O=c1cc(-c2ccc(-c3nnc(-c4ccc([N+](=O)[O-])cc4)o3)cc2)oc2ccccc12` [Compound 10, 2-(4-(5-(4-Nitrophenyl)-1,3,4-oxadiazol-2-yl)phenyl)-4H-chromen-4-one] returned a melting point of 304 to 305 °C.

`O=c1cc(-c2ccc(-c3nnc(-c4cccc([N+](=O)[O-])c4)o3)cc2)oc2ccccc12` [Compound 11, 2-(4-(5-(3-Nitrophenyl)-1,3,4-oxadiazol-2-yl)phenyl)-4H-chromen-4-one] registered a melting point of 296 to 297 °C. In the case of `O=c1cc(-c2ccc(-c3nnc(-c4ccccc4[N+](=O)[O-])o3)cc2)oc2ccccc12` [Compound 12, 2-(4-(5-(2-Nitrophenyl)-1,3,4-oxadiazol-2-yl)phenyl)-4H-chromen-4-one] it was 287 to 288 °C; in that of `COc1ccc(-c2nnc(-c3ccc(-c4cc(=O)c5ccccc5o4)cc3)o2)cc1` [Compound 13, 2-(4-(5-(4-Methoxyphenyl)-1,3,4-oxadiazol-2-yl)phenyl)-4H-chromen-4-one], 307 to 308 °C.

Compound `COc1cccc(-c2nnc(-c3ccc(-c4cc(=O)c5ccccc5o4)cc3)o2)c1` [Compound 14, 2-(4-(5-(3-Methoxyphenyl)-1,3,4-oxadiazol-2-yl)phenyl)-4H-chromen-4-one] had a melting point of 299 to 300 °C. The result for `COc1ccccc1-c1nnc(-c2ccc(-c3cc(=O)c4ccccc4o3)cc2)o1` [Compound 15, 2-(4-(5-(2-Methoxyphenyl)-1,3,4-oxadiazol-2-yl)phenyl)-4H-chromen-4-one] reads 286 to 287 °C; that for `O=c1cc(-c2ccc(-c3nnc(-c4ccccn4)o3)cc2)oc2ccccc12` [Compound 16, 2-(4-(5-(Pyridin-2-yl)-1,3,4-oxadiazol-2-yl)phenyl)-4H-chromen-4-one], 270 to 271 °C. `O=c1cc(-c2ccc(-c3nnc(-c4cccnc4)o3)cc2)oc2ccccc12` [Compound 17, 2-(4-(5-(Pyridin-3-yl)-1,3,4-oxadiazol-2-yl)phenyl)-4H-chromen-4-one] yielded a melting point of 280 to 281 °C.

As to `O=c1cc(-c2ccc(-c3nnc(-c4ccncc4)o3)cc2)oc2ccccc12` [Compound 18, 2-(4-(5-(Pyridin-4-yl)-1,3,4-oxadiazol-2-yl)phenyl)-4H-chromen-4-one], the melting point is 288 to 289 °C. In the case of `O=c1cc(-c2ccc(-c3nnc(-c4ccccc4)o3)cc2)oc2ccccc12` [Compound 19, 2-(4-(5-Phenyl-1,3,4-oxadiazol-2-yl)phenyl)-4H-chromen-4-one] it was 280 to 281 °C.
